Reference: ChEMBL document CHEMBL1201862, “PubChem BioAssay data set” (2004)
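Five concentrations, 48 hours, 96-well plates. GI50 marks 50% less growth.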 Activity calls are given as the source filed them. Cut-off read from the data, not from the text of the source: active = GI50 up to about 1.1 µM and inactive = higher.

How the values were obtained:
Assay in all cases: NCI tumour cell line growth inhibition, 48 h
[1] = system: 786-0
[2] = system: BT-549
[3] = system: HL-60
[4] = system: KM12
[5] = system: LOX IMVI
[6] = system: M14
[7] = system: MDA-N
[8] = system: NCI-H23
[9] = system: OVCAR-3
[10] = system: OVCAR-5
[11] = system: OVCAR-8
[12] = system: SF-268
[13] = system: SF-539
[14] = system: SNB-19
[15] = system: SNB-75
[16] = system: T47D
[17] = system: TK-10
[18] = system: UACC-257
[19] = system: UACC-62

| SMILES | GI50 [1] | GI50 [2] | GI50 [3] | GI50 [4] | GI50 [5] | GI50 [6] | GI50 [7] | GI50 [8] | GI50 [9] | GI50 [10] | GI50 [11] | GI50 [12] | GI50 [13] | GI50 [14] | GI50 [15] | GI50 [16] | GI50 [17] | GI50 [18] | GI50 [19] |
| --- | --- | --- | --- | --- | --- | --- | --- | --- | --- | --- | --- | --- | --- | --- | --- | --- | --- | --- | --- |
| O=C(OCC(OC(=O)c1ccccc1)C1CC(C(O)C2CCCCC2)C(=O)O1)c1ccccc1 (centres undefined) | > 100 µM (inactive) | 53 µM (inactive) | 16.4 µM (inactive) | 41.8 µM (inactive) | 37.4 µM (inactive) | 63.7 µM (inactive) | > 100 µM (inactive) | > 100 µM (inactive) | 35.3 µM (inactive) | > 100 µM (inactive) | 49.3 µM (inactive) | 91.8 µM (inactive) | 25.1 µM (inactive) | 59 µM (inactive) | 51.4 µM (inactive) | 37.2 µM (inactive) | > 100 µM (inactive) | > 100 µM (inactive) | > 100 µM (inactive) |
| Nc1cccnc1NCC1(CO)CCCC1 | > 100 µM (inactive) | > 100 µM (inactive) | > 100 µM (inactive) | > 100 µM (inactive) | > 100 µM (inactive) |  | > 100 µM (inactive) | > 100 µM (inactive) | > 100 µM (inactive) | > 100 µM (inactive) | > 100 µM (inactive) | > 100 µM (inactive) | > 100 µM (inactive) |  | > 100 µM (inactive) | > 100 µM (inactive) | > 100 µM (inactive) | > 100 µM (inactive) | > 100 µM (inactive) |
| COc1cc(S(=O)(=O)Nc2nc(-c3ccc(/N=C/c4ccccc4O)cc3)cs2)ccc1Cl | 48.2 µM (inactive) | 37.4 µM (inactive) | 35.6 µM (inactive) | 53.8 µM (inactive) | 47 µM (inactive) | 30.1 µM (inactive) | 30.5 µM (inactive) | 36.3 µM (inactive) | 33 µM (inactive) | > 100 µM (inactive) | 38.5 µM (inactive) | 32 µM (inactive) | 39.4 µM (inactive) | 34.2 µM (inactive) | 51.1 µM (inactive) | 27.4 µM (inactive) | 74.3 µM (inactive) | 35.9 µM (inactive) | 23.7 µM (inactive) |
| C[n+]1c2ccccc2n2c3ccccc3c(NCCc3ccccn3)c(C#N)c21 | 1.58 µM (inactive) | 5.89 µM (inactive) | 3.13 µM (inactive) | 2.47 µM (inactive) | 1.17 µM (inactive) | 2.38 µM (inactive) | 1.64 µM (inactive) | 2.56 µM (inactive) | 2.34 µM (inactive) | 2 µM (inactive) | 1.18 µM (inactive) | 2.36 µM (inactive) | 1.99 µM (inactive) | 3.33 µM (inactive) | 1.38 µM (inactive) | 2.36 µM (inactive) | 1.14 µM (inactive) | 3.5 µM (inactive) | 2.53 µM (inactive) |
| O=C(O)CCC(=O)C(=O)O [ALPHA-KETOGLUTARIC ACID] | > 100 µM (inactive) | > 100 µM (inactive) | > 100 µM (inactive) | > 100 µM (inactive) | > 100 µM (inactive) | > 100 µM (inactive) | > 100 µM (inactive) | > 100 µM (inactive) | > 100 µM (inactive) | > 100 µM (inactive) | > 100 µM (inactive) | > 100 µM (inactive) | > 100 µM (inactive) | > 100 µM (inactive) | > 100 µM (inactive) | > 100 µM (inactive) | > 100 µM (inactive) | > 100 µM (inactive) | > 100 µM (inactive) |
| CC[C@]12CCCN3CCc4c(n(c5ccccc45)C(=O)C1)[C@@H]32 [VINBURNINE] | 10.1 µM (inactive) | 24.7 µM (inactive) | 2.65 µM (inactive) | 4.54 µM (inactive) | 10 µM (inactive) | 3.97 µM (inactive) | 1.53 µM (inactive) | 13.7 µM (inactive) | 2.44 µM (inactive) | 34.6 µM (inactive) | 15.5 µM (inactive) | 11.6 µM (inactive) | 7.91 µM (inactive) | 14.5 µM (inactive) | 13.3 µM (inactive) | 11.5 µM (inactive) | 12.5 µM (inactive) | 15.2 µM (inactive) | 5.82 µM (inactive) |
| O=c1cc(CNC2CC3CCC2C3)[nH]c(=O)[nH]1 (centres undefined) | > 100 µM (inactive) | > 100 µM (inactive) | > 100 µM (inactive) | > 100 µM (inactive) | > 100 µM (inactive) | > 100 µM (inactive) | > 100 µM (inactive) | > 100 µM (inactive) | > 100 µM (inactive) | > 100 µM (inactive) | > 100 µM (inactive) | > 100 µM (inactive) | > 100 µM (inactive) | > 100 µM (inactive) | > 100 µM (inactive) | > 100 µM (inactive) | > 100 µM (inactive) | > 100 µM (inactive) | > 100 µM (inactive) |
| Cc1ccc2nc3n(c2c1)C(c1c(F)cccc1F)SC3 (centres undefined) | > 100 µM (inactive) | > 100 µM (inactive) | 71.6 µM (inactive) | > 100 µM (inactive) | > 100 µM (inactive) | > 100 µM (inactive) | > 100 µM (inactive) | > 100 µM (inactive) | > 100 µM (inactive) | > 100 µM (inactive) |  | > 100 µM (inactive) | > 100 µM (inactive) | > 100 µM (inactive) | > 100 µM (inactive) | > 100 µM (inactive) | > 100 µM (inactive) | > 100 µM (inactive) | > 100 µM (inactive) |
| CC(=O)OCC1OC(n2c3c(c(-c4ccc(Cl)cc4)c(C#N)c2=S)C(=O)CC(C)(C)C3)C(OC(C)=O)C(OC(C)=O)C1OC(C)=O (centres undefined) | 12.8 µM (inactive) | 3.14 µM (inactive) | 5.33 µM (inactive) | 29.7 µM (inactive) | 7.55 µM (inactive) | 27.5 µM (inactive) | 11.5 µM (inactive) | 28.8 µM (inactive) | 32.7 µM (inactive) | 35.8 µM (inactive) | 9.55 µM (inactive) | 12.1 µM (inactive) | 21.1 µM (inactive) | > 45.4 µM (inactive) | 11.4 µM (inactive) | 6.98 µM (inactive) | > 100 µM (inactive) | 15.2 µM (inactive) | 7.62 µM (inactive) |
| CC(=O)C(C(=O)C(C)(C)C)C(=O)C(C)(C)C | > 100 µM (inactive) | > 100 µM (inactive) | > 100 µM (inactive) | > 100 µM (inactive) | > 100 µM (inactive) | > 100 µM (inactive) | > 100 µM (inactive) |  |  | > 100 µM (inactive) | > 100 µM (inactive) | > 100 µM (inactive) | > 100 µM (inactive) | > 100 µM (inactive) | 59.4 µM (inactive) | > 100 µM (inactive) | > 100 µM (inactive) | > 100 µM (inactive) | > 100 µM (inactive) |
| CC1=CC(C)(C)[C@H]2O[C@@]3(O)C[C@]4(C)[C@H]5C[C@@](C(C)C)(O[C@H]4c4ccoc4)O[C@H]4[C@]5(C3)O[C@@]1(O)[C@]24O | 89.1 µM (inactive) | > 100 µM (inactive) | > 100 µM (inactive) | > 100 µM (inactive) | > 100 µM (inactive) | > 100 µM (inactive) | > 100 µM (inactive) | > 100 µM (inactive) | > 100 µM (inactive) | > 100 µM (inactive) | > 100 µM (inactive) | > 100 µM (inactive) | > 100 µM (inactive) | 45.4 µM (inactive) | 12.3 µM (inactive) | > 100 µM (inactive) | > 100 µM (inactive) | > 100 µM (inactive) | > 100 µM (inactive) |
| O=[Se](O)O | 2.47 µM (inactive) | 4.9 µM (inactive) | 10.4 µM (inactive) | 1.63 µM (inactive) | 2.76 µM (inactive) | 3.44 µM (inactive) | 2.24 µM (inactive) | 3.72 µM (inactive) | 4.16 µM (inactive) | 1.95 µM (inactive) | 2.88 µM (inactive) | 1.18 µM (inactive) | 0.912 µM (active) | 1.03 µM (active) | 1.49 µM (inactive) | > 40 µM (inactive) | 6.67 µM (inactive) | 12.6 µM (inactive) | 1.32 µM (inactive) |
| Cc1ccc(S(=O)(=O)NCc2cccc([N+](=O)[O-])c2)cc1 | > 100 µM (inactive) | > 100 µM (inactive) | 28.8 µM (inactive) | > 100 µM (inactive) | > 100 µM (inactive) | > 100 µM (inactive) | > 100 µM (inactive) | > 100 µM (inactive) | 72.8 µM (inactive) | > 100 µM (inactive) | > 100 µM (inactive) | > 100 µM (inactive) | > 100 µM (inactive) | > 100 µM (inactive) | > 100 µM (inactive) | > 100 µM (inactive) | > 100 µM (inactive) | 75.9 µM (inactive) | > 100 µM (inactive) |
| [O-]/[N+](=N\c1ccccc1CO)c1ccccc1CO | > 100 µM (inactive) | > 100 µM (inactive) | > 100 µM (inactive) | > 100 µM (inactive) | > 100 µM (inactive) | > 100 µM (inactive) | > 100 µM (inactive) | > 100 µM (inactive) | > 100 µM (inactive) | > 100 µM (inactive) | > 100 µM (inactive) | > 100 µM (inactive) | > 100 µM (inactive) | > 100 µM (inactive) | 84.7 µM (inactive) | > 100 µM (inactive) | > 100 µM (inactive) | > 100 µM (inactive) | > 100 µM (inactive) |
| COC(=O)C(Cc1ccccc1)NP(=O)(O)OCC1OC(n2cc(I)c(=O)[nH]c2=O)CC1O (centres undefined) | > 100 µM (inactive) | > 100 µM (inactive) | > 100 µM (inactive) | > 100 µM (inactive) | > 100 µM (inactive) | > 100 µM (inactive) | > 100 µM (inactive) | > 100 µM (inactive) | > 100 µM (inactive) |  | > 100 µM (inactive) | > 100 µM (inactive) | > 100 µM (inactive) | > 100 µM (inactive) | > 100 µM (inactive) | > 100 µM (inactive) | > 100 µM (inactive) | > 100 µM (inactive) | > 100 µM (inactive) |
